Measurements published in the Kinase Knowledgebase extract (Sharma et al. 2016).

target: CDK2 (human) (UniProt P24941); assay: Enzyme Assay

SMILES	IC50
C1=CCOCc2cc(ccc2OCCN2CCCC2)Nc2nccc(n2)-c2ccc3c(ccn3CC1)c2	≤ 1000 nM
Cc1cnc2nc1-c1ccc3ccn(c3c1)CC=CCOCc1cc(ccc1OCCN1CCCC1)N2	≤ 1000 nM
ClCCOc1ccc2cc1COCC=CCn1ccc3ccc(cc31)-c1ccnc(n1)N2	≤ 1000 nM
C1=CCn2ccc3ccc(cc32)-c2ccnc(n2)Nc2cccc(c2)COC1	≤ 1000 nM
CC(=O)NCCNCCOc1ccc2cc1COCC=CCn1ccc3ccc(cc31)-c1ccnc(n1)N2	≤ 1000 nM

The next lines start with the values.

IC50	SMILES
≤ 1000 nM	CCN(CC)CCNCCOc1ccc2cc1COCC=CCn1ccc3ccc(cc31)-c1ccnc(n1)N2
≤ 1000 nM	O=C(CCN1CCCCC1)Nc1ccc2cc1OCCC=CCn1ccc3ccc(cc31)-c1ccnc(n1)N2
≤ 1000 nM	O=C(CCN1CCCCC1)Nc1ccc2cc1OCC=CCn1ccc3ccc(cc31)-c1ccnc(n1)N2
≤ 1000 nM	C1=CCOCc2cc(ccc2OCCN2CCCC2)Nc2nccc(n2)-c2ccc3ccn(c3c2)CC1
≤ 1000 nM	CN1CCN(c2ccc3cc2COCC=CCn2ccc4ccc(cc42)-c2ccnc(n2)N3)CC1
≤ 1000 nM	C1=CCn2ccc3ccc(cc32)-c2ccnc(n2)Nc2ccc(OCCN3CCCC3)c(c2)COC1
≤ 1000 nM	CN1CC=CCCn2ccc3ccc(cc32)-c2ccnc(n2)Nc2cccc(c2)C1
≤ 1000 nM	C1=CCn2ccc3ccc(cc32)-c2ccnc(n2)Nc2cccc(c2)OCC1
